As a reminder, the IC50 is the concentration that inhibits the measured activity by half.

One compound from ChEMBL document CHEMBL5728742, “Pyrrolo-pyridine derivative compound, method for preparing same, and pharmaceutical composition containing same as active ingredient for prevention or treatment of protein kinase-related diseases” (2021) can be followed below.

The assay deals with Dual specificity tyrosine-phosphorylation-regulated kinase 1A (Homo sapiens, UniProt Q13627). The assay can be described thus: Then, DYRK1A kinase was added thereto, followed by mixing well. Each compound of Examples was added thereto by using acoustic technology (Echo550; nanoliter range). […] After reacting at room temperature for 2 hours, spotting was performed on P81 exchange paper. Upon completion of the reaction, kinase activity was detected using a filter-binding method.

In turn, `CCNc1cc(Nc2cc(F)c(C(=O)NC3CCN(C)CC3)cc2OC)nc2[nH]cc(C(F)(F)F)c12` returned an IC50 of over 0.1 µM.
